Patent US8889378B2, “Cytochrome C synthesis inhibitors” (priority 2006, dated 2014)

Columns and labels:
[1] = tested on: system II (CcsBA) cytochrome c biogenesis (heme acquisition); assay: Exogenous heme addition, E. coli ΔccmΔhemA (RK105) with system II (CcsBA), chuA and pRGK332; assay type: cell-based; conditions: averaged over 3 trials, Hill curve fit, read-out: heme concentration at which holocytochrome c4:6×His levels reached 50% of maximum synthesis
Procedure: (§1) Cultures of RK105 (E. coli ΔccmΔhemA) harboring pRGK333 (system I), pRGK332 (cytochrome c4:6×His), and pHPEX2 (Varnado and Goodwin, 2004) or pRGK348 (system II) and pRGK332 were grown in LB overnight in the presence of 300 μM aminolevulinic acid (ALA). 100 mL cultures were started from the overnight culture with a 1% inoculum in LB devoid of ALA for two and one-half hours. After two and one-half hours, the 100 mL cultures had exhausted their cellular supply of ALA and required exogenous heme (or ALA) for further growth. The ALA exhausted cultures were divided into 5 mL aliquots to which IPTG (1 mM, to induce the synthesis of the system I proteins) and heme (0 μM to 100 μM) (Sigma) were added. […]
Heme stains were performed as described (Feissner et al., 2003) using SuperSignal Femto chemiluminescent substrate (Pierce). Heme stain quantitation used LOLITA II (Low Light Test Array; raytestUSA; Wilmington, N.C.) for standardization of light intensity detection on an LAS1000plus Luminescent Image Analyzer CCD camera system. […] Chemiluminescence from heme stains and Western blots were detected using an LAS-1000plus Luminescent Image Analyzer CCD camera system (Fujifilm). Protein concentrations were determined using the BCA assay (Pierce) using BSA as a standard. […] Protein concentrations were determined with the BCA assay kit (Pierce) using BSA as a standard. […]

[2] = tested on: E. coli ΔccmΔhemA; assay: Growth of E. coli ΔccmΔhemA on exogenous heme, without or with the heme porin ChuA (pHPEX2); assay type: cell-based
Procedure: FIG. 13. Growth of E. coli DccmDhemA with exogenous heme. Overnight cultures of E. coli DccmDhemA or containing pHPEX2 and (A) pRGK333 or (B) pRGK334 were diluted into LB broth without ALA or heme. The cultures were incubated aerobically at 37° C. for two and one-half hours to exhaust the cultures for ALA. Heme was added at the indicated concentrations when noted and growth (A600) was measured. For reference, the growth of E. coli Dccm (wild-type) containing either pRGK333 or pRGK334 is shown (t).
To determine if exogenous heme rather than ALA could support growth, an overnight culture of E. coli ΔccmΔhemA, supplemented with 300 μM ALA, was used to inoculate [1% (v/v)] fresh LB medium containing different concentrations of heme (0 μM to 100 μM).
Since the outer membranes of some strains of E. coli are poorly permeable to heme, the heme porin from pHPEX2 (Varnado and Goodwin, 2004) was expressed. The tetracycline-resistant pHPEX2 expresses the gene for the heme receptor (chuA) from E. coli O157:H7 using the IPTG-inducible lacUV5 promoter. ChuA is a member of a class of relatively nonspecific enterobacterial heme receptors that are TonB-dependent and facilitate heme acquisition from the environment and recognize free heme and heme bound to a variety of proteins (see FIG. 11). Growth of E. coli ΔccmΔhemA containing either pRGK333 or pRGK334 and pHPEX2 was dependant on exogenous heme (see FIG. 13). […] The pHPEX2 also facilitates the heme-dependent production of the B. pertussis c4:6×His when the plasmids with system I or system II are present (see below).

[3] = tested on: system I cytochrome c biogenesis (heme acquisition); assay: Exogenous heme addition, E. coli ΔccmΔhemA (RK105) with system I, pRGK332 and pHPEX2; assay type: cell-based
Procedure: as §1, with “added. It was discovered that heme at greater than 60 μM would precipitate over time with no IPTG (1 mM) present and at greater than 100 μM in the presence of IPTG. After one hour, arabinose (0.2% to induce the synthesis of cytochrome c4:6×His) was added and cultures were grown for an additional three hours. Cells were harvested and protein was extracted using B-PER as previously described (Feissner et al., 2006).” for “added.”
Heme stains were performed as described (Feissner et al., 2003) using SuperSignal Femto chemiluminescent substrate (Pierce). Heme stain quantitation used LOLITA II (Low Light Test Array; raytestUSA; Wilmington, N.C.) for standardization of light intensity detection on an LAS1000plus Luminescent Image Analyzer CCD camera system. […] Chemiluminescence from heme stains and Western blots were detected using an LAS-1000plus Luminescent Image Analyzer CCD camera system (Fujifilm). Protein concentrations were determined using the BCA assay (Pierce) using BSA as a standard. […] Protein concentrations were determined with the BCA assay kit (Pierce) using BSA as a standard.
To directly examine the difference in heme acquisition between systems I and II, varying concentrations of exogenous heme were supplied to E. coli ΔccmΔhemA, expressing ChuA with pRGK332 and either system plasmid. […] The cytochrome c4 acts as a trap, allowing quantitation of the levels of heme that have fluxed through each system. […]

[4] = tested on: system I cytochrome c biogenesis; assay: Heme competition with ZnPPIX inhibition, E. coli Δccm with system I, ChuA and cytochrome c4:Pho; assay type: cell-based; conditions: grown with 12.5 μM ZnPPIX
Procedure: FIG. 22. Western blot (A: lanes 1-7) and heme stain (B: lanes 1-5) indicating ZnPPIX competes with heme. Overnight cultures of E. coli Dccm containing pRGK333, pRGK331, and pHPEX2 were diluted into fresh LB broth containing […] ZnPPIX and grown to mid-log phase. IPTG (1 mM) was added and incubation continued for 30 minutes. Heme was added and incubation continued for 30 minutes. Arabinose (0.2%) was added for three hours to induce synthesis of cytochrome c4:PhoA and soluble B-PER protein extracts were prepared. The concentrations ([…]) of ZnPPIX and heme are given above each lane. Above the panel pSysI is pRGK333, pc4:PhoA is cytochrome c4:PhoA, and Dccm is E. coli Dcam.
ZnPPIX is inhibiting downstream of holoCcmE since this “heme reservoir” is no longer available for cytochrome c4 biogenesis. The WWD containing protein CcmF may the target for ZnPPIX (see FIG. 11). If the target for ZnPPIX is a heme binding protein (site), then exogenous heme should compete with this inhibition (i.e. ZnPPIX binding). […] The same heme stained polypeptides were confirmed to be full length cytochrome c4:Pho fusion proteins by Western blot (FIG. 22A, lane 1-5). ZnPPIX is a specific inhibitor of c-type cytochrome biogenesis by either system I or system II, but heme is able to compete with ZnPPIX inhibition.

[5] = Heme precipitation in culture medium; assay type: physicochemical
Procedure: Cultures of RK105 (E. coli ΔccmΔhemA) harboring pRGK333 (system I), pRGK332 (cytochrome c4:6×His), and pHPEX2 (Varnado and Goodwin, 2004) or pRGK348 (system II) and pRGK332 were grown in LB overnight in the presence of 300 μM aminolevulinic acid (ALA). 100 mL cultures were started from the overnight culture with a 1% inoculum in LB devoid of ALA for two and one-half hours. After two and one-half hours, the 100 mL cultures had exhausted their cellular supply of ALA and required exogenous heme (or ALA) for further growth. The ALA exhausted cultures were divided into 5 mL aliquots to which IPTG (1 mM, to induce the synthesis of the system I proteins) and heme (0 μM to 100 μM) (Sigma) were added. It was discovered that heme at greater than 60 μM would precipitate over time with no IPTG (1 mM) present and at greater than 100 μM in the presence of IPTG. After one hour, arabinose (0.2% to induce the synthesis of cytochrome c4:6×His) was added and cultures were grown for an additional three hours. Cells were harvested and protein was extracted using B-PER as previously described (Feissner et al., 2006). Cytochrome c4:6×His was purified from 200 μg of total protein over nickel affinity resin to eliminate free heme. 20 μL of each sample were subjected to SDS-PAGE, transferred to nitrocellulose, and heme stained as described above. […]

Substance: iron protoporphyrin IX [heme]
- EC50 [1]: 54.4 µM
- growth on exogenous heme ([2]; chuA (pHPEX2) expressed, pRGK333 or pRGK334): growth to near wild-type levels
- growth on exogenous heme ([2]; heme 0 μM to 100 μM, no heme porin): not detected until four to five days
- holocytochrome c4:6×His production on exogenous heme ([2]; no heme porin, system I or system II plasmid and c4:6×His reporter): no holocytochrome c4:6×His production was detected
- heme concentration at which maximum synthesis of holocytochrome c4:6×His occurs ([3]; system I): less than 10 μM
- apparent affinity for heme, system I versus system II ([3]; system I compared with system II): at least twenty fold higher
- EC50 ([3]; system I, averaged over 4 trials, Hill curve fit, read-out: heme concentration restoring holocytochrome c4:6×His levels to 50% of maximum): 1.9 µM
- holocytochrome c4:Pho with increasing concentrations of additional heme [4]: corresponding increase in holocytochrome c4:Pho
- heme concentration above which heme would precipitate over time ([5]; in the presence of IPTG): greater than 100 μM
- heme concentration above which heme would precipitate over time ([5]; no IPTG (1 mM) present): greater than 60 μM
